The record followed here is ChEMBL document CHEMBL5465560, “Selectivity Literature for EUbOPEN Chemogenomic Library” (2024).

Assay [1] concerns the target [Pyruvate dehydrogenase (acetyl-transferring)] kinase isozyme 1, mitochondrial (Homo sapiens, UniProt Q15118). The assay is described as follows: Selectivity interaction (Kinase panel (Z-LYTE Assay)) EUB0001632a PDK1. The note with it: at 10 µM.
In assay [2] the target is Tyrosine-protein kinase ABL1 (Homo sapiens, UniProt P00519). The assay is described as follows: Selectivity interaction (KinomeScan (DiscoverX)) EUB0000666a ABL1. The conditions noted are these: at 10 µM.
Assay [3] addresses Serine/threonine-protein kinase PAK 1 (Homo sapiens) (UniProt Q13153). Description: Selectivity interaction (KinomeScan (DiscoverX)) EUB0001079a PAK1. The conditions noted are these: at 1 µM.
Assay [4] has as its target T1, Serine/threonine-protein kinase Sgk3 (Homo sapiens) (UniProt Q96BR1).
T1 sequence (whole entry): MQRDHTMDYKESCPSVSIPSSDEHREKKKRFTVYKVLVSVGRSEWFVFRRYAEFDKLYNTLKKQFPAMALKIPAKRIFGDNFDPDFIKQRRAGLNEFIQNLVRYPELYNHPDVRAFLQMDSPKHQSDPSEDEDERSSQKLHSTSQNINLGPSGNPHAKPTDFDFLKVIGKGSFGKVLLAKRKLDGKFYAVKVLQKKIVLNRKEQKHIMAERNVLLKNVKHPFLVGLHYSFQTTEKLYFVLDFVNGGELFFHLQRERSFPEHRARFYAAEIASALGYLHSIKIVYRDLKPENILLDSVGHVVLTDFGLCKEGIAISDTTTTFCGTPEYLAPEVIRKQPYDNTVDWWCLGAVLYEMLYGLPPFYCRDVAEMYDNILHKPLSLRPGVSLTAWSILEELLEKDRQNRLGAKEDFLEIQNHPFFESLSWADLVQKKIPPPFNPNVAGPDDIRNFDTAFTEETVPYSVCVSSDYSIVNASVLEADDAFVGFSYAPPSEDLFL
Description: Selectivity interaction (ActivX KiNativ screen (kinase selectivity in THP-1 cell lysates)) EUB0000639a SGK3. The assay is classed as subcellular. The note with it: lysate, at 0.01 µM.

The target in assay [5] is Ribosomal protein S6 kinase alpha-3 (Homo sapiens, UniProt P51812). The assay is described as follows: Selectivity interaction (ActivX KiNativ screen (kinase selectivity in THP-1 cell lysates)) EUB0000639a RPS6KA3. Type of assay: subcellular. The conditions noted are these: lysate, at 5 µM.
The target in assay [6] is Non-receptor tyrosine-protein kinase TYK2 (Homo sapiens, UniProt P29597). The assay is described as follows: Selectivity interaction (ActivX KiNativ screen (kinase selectivity in THP-1 cell lysates)) EUB0000639a TYK2. The assay is classed as subcellular. The note with it: lysate, at 0.2 µM.
Assay [7] deals with MAP kinase-interacting serine/threonine-protein kinase 1 (Homo sapiens) (UniProt Q9BUB5). The note with it: at 10 µM.
Assay [8] concerns the target T2, Ephrin type-B receptor 6 (Homo sapiens) (UniProt O15197).
T2 sequence (whole entry): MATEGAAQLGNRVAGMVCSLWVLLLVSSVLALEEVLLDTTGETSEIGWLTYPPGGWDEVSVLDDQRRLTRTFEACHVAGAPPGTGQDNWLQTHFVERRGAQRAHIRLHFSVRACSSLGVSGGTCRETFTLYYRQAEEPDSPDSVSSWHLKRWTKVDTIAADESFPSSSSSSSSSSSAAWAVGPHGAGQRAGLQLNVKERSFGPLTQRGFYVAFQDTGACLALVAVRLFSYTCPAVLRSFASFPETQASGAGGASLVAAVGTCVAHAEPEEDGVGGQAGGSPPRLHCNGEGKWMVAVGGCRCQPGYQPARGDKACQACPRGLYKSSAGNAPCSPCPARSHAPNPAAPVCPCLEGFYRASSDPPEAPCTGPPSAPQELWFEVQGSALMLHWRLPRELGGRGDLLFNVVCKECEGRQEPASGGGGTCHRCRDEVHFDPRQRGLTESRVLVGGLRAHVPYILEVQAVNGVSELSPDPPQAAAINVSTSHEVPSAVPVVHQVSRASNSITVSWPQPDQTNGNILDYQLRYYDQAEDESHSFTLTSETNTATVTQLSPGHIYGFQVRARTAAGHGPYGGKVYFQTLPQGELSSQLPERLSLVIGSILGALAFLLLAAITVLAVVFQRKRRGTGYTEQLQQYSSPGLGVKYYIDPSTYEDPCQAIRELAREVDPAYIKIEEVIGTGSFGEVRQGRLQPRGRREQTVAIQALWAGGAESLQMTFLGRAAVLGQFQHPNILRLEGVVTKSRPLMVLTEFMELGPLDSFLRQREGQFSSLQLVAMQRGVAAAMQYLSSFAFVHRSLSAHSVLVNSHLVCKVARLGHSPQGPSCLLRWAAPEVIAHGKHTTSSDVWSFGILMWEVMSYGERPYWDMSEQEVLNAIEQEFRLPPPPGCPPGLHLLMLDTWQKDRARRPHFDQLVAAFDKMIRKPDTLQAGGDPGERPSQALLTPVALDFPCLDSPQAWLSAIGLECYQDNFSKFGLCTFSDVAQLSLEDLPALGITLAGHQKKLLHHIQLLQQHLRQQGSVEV
Description: Selectivity interaction (KinomeScan (DiscoverX)) EUB0000092b EPHB6. The conditions noted are these: at 10 µM.

Assay [9] deals with SRSF protein kinase 1 (Homo sapiens, UniProt Q96SB4). Description: Selectivity interaction (Kinase panel (DSF assay)) EUB0001559a SRPK1. (In DSF a fluorescence change marks the thermal transition of the protein.)
In assay [10] the target is T3, Serine/threonine-protein kinase haspin (Homo sapiens) (UniProt Q8TF76).
T3 sequence (whole entry): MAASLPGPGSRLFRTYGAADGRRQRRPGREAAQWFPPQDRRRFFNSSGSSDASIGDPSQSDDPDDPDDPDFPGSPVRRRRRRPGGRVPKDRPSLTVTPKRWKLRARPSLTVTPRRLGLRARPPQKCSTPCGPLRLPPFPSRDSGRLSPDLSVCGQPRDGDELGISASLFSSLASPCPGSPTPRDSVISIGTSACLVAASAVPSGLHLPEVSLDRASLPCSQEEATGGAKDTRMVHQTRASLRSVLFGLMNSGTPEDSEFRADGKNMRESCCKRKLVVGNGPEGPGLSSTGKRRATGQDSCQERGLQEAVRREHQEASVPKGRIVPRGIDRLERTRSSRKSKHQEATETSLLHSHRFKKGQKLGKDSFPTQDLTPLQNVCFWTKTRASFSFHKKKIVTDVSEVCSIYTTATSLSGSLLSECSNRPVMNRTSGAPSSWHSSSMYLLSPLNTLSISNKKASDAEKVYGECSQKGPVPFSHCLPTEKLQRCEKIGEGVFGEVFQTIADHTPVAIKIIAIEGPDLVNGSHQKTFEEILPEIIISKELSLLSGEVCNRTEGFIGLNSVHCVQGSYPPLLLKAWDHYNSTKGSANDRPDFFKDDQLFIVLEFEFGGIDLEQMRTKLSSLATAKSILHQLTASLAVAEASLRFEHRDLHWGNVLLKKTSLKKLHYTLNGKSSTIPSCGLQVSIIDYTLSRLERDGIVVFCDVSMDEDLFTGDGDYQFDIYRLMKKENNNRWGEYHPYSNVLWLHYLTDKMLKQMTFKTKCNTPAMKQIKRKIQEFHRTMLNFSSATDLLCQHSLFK
The assay is described as follows: Selectivity interaction (KinomeScan (DiscoverX)) EUB0001550a GSG2. The conditions noted are these: at 1 µM.

The target of assay [11] is Receptor tyrosine-protein kinase erbB-3 (Homo sapiens) (UniProt P21860). Description: Selectivity interaction (KinomeScan (DiscoverX)) EUB0000595a ERBB3. The note with it: at 10 µM.
Chain of Receptor tyrosine-protein kinase erbB-3 (Homo sapiens) (P21860 whole entry): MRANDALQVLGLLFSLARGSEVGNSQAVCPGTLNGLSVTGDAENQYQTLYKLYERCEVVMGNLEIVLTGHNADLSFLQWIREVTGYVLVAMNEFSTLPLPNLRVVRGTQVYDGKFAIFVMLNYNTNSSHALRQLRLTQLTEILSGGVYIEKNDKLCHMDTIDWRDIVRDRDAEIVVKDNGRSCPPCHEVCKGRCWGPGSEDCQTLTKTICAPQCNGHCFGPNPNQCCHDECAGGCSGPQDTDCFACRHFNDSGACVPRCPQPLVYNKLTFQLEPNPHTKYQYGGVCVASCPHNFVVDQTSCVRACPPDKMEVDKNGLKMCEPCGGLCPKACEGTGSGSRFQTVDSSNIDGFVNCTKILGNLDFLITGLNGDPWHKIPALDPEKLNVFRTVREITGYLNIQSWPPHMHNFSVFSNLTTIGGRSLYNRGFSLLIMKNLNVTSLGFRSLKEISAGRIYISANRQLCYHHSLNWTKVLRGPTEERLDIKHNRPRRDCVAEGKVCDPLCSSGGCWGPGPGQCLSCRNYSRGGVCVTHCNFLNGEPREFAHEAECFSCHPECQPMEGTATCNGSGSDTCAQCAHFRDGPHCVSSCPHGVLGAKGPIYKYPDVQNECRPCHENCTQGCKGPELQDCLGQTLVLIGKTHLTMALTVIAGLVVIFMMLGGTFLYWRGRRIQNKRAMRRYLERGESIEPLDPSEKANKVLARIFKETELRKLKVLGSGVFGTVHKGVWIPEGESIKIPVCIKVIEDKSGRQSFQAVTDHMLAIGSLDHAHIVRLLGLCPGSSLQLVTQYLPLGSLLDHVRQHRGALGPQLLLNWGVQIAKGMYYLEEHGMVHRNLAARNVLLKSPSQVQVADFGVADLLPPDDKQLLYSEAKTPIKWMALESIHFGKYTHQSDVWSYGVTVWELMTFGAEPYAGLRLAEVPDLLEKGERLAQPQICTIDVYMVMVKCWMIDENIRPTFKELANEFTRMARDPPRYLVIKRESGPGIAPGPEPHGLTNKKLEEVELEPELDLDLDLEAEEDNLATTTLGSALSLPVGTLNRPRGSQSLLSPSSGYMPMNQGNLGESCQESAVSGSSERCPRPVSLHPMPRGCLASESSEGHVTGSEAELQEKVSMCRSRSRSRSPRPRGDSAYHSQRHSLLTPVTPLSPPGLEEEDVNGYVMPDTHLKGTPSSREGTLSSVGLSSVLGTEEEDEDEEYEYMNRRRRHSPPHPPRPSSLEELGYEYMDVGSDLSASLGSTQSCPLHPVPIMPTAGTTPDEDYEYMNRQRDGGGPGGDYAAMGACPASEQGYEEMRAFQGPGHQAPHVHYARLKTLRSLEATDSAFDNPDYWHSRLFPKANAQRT

Chain of SRSF protein kinase 1 (Q96SB4 whole entry): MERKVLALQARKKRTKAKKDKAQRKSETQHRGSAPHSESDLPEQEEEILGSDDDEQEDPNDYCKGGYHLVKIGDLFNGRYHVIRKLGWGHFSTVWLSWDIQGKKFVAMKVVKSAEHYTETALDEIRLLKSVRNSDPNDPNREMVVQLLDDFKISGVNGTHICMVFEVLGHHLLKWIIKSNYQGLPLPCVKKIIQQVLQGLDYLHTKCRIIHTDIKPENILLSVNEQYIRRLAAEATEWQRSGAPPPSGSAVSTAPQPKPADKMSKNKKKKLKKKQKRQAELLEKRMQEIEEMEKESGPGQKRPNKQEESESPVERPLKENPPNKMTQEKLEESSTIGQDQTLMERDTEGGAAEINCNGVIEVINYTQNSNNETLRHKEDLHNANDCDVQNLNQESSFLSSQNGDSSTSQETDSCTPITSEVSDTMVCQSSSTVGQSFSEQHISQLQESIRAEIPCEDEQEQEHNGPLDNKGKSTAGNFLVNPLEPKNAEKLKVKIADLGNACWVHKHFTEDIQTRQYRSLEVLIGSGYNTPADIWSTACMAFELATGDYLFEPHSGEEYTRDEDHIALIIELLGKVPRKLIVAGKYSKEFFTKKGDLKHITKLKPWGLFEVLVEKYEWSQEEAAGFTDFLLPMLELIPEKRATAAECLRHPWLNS
Chain of Non-receptor tyrosine-protein kinase TYK2 (P29597 whole entry): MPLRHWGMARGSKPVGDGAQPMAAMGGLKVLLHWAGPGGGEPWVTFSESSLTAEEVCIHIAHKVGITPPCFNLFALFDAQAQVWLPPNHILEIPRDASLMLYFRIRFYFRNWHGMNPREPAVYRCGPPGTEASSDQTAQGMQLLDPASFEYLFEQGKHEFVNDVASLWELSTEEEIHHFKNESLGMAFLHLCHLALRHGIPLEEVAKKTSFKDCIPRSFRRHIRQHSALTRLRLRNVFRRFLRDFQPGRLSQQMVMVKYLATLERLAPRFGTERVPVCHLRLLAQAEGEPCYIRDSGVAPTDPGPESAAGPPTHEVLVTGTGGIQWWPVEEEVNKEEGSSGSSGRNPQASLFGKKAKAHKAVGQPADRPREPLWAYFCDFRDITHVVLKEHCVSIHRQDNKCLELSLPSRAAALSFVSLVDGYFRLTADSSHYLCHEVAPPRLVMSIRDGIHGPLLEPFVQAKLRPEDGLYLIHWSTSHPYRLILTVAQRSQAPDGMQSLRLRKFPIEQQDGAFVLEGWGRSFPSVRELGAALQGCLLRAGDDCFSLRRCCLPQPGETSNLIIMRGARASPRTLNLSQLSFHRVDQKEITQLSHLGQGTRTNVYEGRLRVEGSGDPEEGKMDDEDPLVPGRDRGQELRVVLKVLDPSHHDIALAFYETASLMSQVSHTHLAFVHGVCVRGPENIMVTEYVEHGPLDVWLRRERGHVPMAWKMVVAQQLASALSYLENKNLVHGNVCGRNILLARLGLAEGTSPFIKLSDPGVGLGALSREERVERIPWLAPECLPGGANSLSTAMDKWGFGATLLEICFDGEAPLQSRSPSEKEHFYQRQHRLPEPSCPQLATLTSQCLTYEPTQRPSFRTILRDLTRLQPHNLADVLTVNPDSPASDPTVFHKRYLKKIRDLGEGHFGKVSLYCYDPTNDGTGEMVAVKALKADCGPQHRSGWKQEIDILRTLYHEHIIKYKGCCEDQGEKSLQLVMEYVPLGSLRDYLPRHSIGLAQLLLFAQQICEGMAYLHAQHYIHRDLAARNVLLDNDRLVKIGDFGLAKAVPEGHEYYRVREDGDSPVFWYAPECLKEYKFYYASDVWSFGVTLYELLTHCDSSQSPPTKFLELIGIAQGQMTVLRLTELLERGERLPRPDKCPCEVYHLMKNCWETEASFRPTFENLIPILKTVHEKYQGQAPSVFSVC
Chain of Ribosomal protein S6 kinase alpha-3 (P51812 whole entry): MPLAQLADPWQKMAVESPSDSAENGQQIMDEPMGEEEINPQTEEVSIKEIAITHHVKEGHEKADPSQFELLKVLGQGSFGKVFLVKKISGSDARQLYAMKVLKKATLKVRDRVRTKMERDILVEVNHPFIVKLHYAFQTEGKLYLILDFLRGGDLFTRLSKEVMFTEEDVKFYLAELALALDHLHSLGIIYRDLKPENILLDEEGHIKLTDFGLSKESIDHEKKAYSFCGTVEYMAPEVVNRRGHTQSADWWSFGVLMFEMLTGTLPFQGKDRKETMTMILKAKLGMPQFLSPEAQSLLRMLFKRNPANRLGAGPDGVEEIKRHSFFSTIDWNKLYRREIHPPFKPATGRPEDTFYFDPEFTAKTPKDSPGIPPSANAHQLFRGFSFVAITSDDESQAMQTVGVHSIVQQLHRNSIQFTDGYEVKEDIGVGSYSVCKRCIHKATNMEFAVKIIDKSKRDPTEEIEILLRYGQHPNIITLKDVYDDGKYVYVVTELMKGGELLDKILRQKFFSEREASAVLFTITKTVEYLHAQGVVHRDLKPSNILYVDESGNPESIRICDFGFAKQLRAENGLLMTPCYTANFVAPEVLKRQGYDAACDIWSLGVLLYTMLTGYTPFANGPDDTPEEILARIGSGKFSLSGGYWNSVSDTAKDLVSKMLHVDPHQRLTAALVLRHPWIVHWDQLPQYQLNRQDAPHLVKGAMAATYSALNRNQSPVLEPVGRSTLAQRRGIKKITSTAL
Chain of Tyrosine-protein kinase ABL1 (P00519 whole entry): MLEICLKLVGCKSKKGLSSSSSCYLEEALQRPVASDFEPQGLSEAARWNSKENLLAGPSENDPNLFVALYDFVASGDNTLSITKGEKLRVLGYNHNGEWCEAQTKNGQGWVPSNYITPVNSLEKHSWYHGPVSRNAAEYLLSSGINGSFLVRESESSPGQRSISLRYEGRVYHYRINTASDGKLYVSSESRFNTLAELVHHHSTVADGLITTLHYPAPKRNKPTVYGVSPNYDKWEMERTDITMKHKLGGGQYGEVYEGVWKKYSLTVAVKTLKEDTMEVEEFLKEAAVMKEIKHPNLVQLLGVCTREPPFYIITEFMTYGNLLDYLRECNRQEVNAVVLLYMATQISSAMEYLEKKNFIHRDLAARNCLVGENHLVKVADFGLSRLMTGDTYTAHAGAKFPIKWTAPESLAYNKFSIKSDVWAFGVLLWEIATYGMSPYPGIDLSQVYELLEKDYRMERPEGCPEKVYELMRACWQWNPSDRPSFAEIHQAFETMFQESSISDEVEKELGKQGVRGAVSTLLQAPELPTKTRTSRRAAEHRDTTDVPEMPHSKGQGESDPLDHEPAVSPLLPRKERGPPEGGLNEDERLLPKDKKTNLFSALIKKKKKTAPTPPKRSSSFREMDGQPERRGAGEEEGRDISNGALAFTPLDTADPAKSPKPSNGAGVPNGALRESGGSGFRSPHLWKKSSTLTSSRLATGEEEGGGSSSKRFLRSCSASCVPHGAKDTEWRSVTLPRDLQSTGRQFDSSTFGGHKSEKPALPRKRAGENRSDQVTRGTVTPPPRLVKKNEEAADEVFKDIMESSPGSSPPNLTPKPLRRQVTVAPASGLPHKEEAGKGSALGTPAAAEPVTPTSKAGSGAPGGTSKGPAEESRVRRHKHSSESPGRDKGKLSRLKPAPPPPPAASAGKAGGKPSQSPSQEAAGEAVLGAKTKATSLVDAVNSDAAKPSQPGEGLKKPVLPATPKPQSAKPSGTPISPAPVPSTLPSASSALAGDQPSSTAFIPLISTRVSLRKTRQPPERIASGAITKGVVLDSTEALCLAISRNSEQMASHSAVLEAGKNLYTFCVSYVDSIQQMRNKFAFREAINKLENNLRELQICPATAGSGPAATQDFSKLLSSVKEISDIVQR

As for `Cn1cc(-n2cnc3c(NCc4nc5cc(Cl)c(Cl)cc5[nH]4)nc(N4CCOCC4)nc32)cn1`, the % of control in assay [1] was -4.24%. For the compound `O=C(NOC[C@H](O)CO)c1ccc(F)c(F)c1Nc1ccc(I)cc1F`, in assay [2], the % of control was determined as 97%. For the compound `Nc1cnc(N2CCc3cc(S(=O)(=O)Nc4c(F)cc(Cl)cc4F)cc(N4CCCC4=O)c32)nc1` [TP-020n], in assay [3], the % of control amounted to 89%. For the compound `CC[C@@H]1[C@H](F)C(=O)N[C@@H]1COc1nccc2cc(C(N)=O)c(OC)cc12` [ZIMLOVISERTIB], the % of inhibition is -1% in assay [4], 2.9% in [5] and 14% in [6]. As for `CCN(CC)CCCCNc1ncc2cc(-c3cc(OC)cc(OC)c3)c(NC(=O)NC(C)(C)C)nc2n1`, the % of control in assay [7] stood at 100%. In the case of `CCC(=O)N1CCN(c2ccc(-n3c(=O)ccc4cnc5ccc(-c6cnc7ccccc7c6)cc5c43)cc2C(F)(F)F)CC1`, the % of control in assay [8] was determined as 80%.

`CN(C(=O)c1cnn2cccnc12)c1cc2c(cc1N1CCOCC1)C(=O)N(C[C@@H](F)C(C)(C)O)C2` registered a dTM in [9] of 0.2 K. Consider `CN(C)CC#Cc1ccc2[nH]c3c(c2c1)-c1nc(N)ncc1CCC3`, for which, in [10], the % of control was found to be 13%. `COCC(=O)NC/C=C/c1ccc2ncnc(Nc3ccc(Oc4ccc(C)nc4)c(C)c3)c2c1` [CP-724714]: the % of control in assay [11] was 20%.
